Assay results as given in patent publication US10487117B2, “Antimicrobial peptide for nosocomial infections” (priority 2015, dated 2019).
Several values for one entry are separate records, joined by “and”; a condition that tells them apart may be missing. Identical values can stand only once. Residues, ends and D or L forms follow the SMILES beside them.

Tests used:
planktonic P. aeruginosa [1] = assay: DiSC3(5) cytoplasmic membrane depolarization assay, planktonic; assay type: cell-based, Pseudomonas aeruginosa; settings: 10% Triton X-100 as maximum reference
Method: To further investigate the antimicrobial mechanism of action of the peptide, its ability to depolarize P. aeruginosa membranes was evaluated. Depolarization activity was analyzed by the DiSC3(5) assay (Table 5). DiSC3(5) is a fluorescent probe, which is sensitive to membrane potential. The DiSC3(5) fluorescence is quenched upon interaction with intact cell membranes. When the membrane potential is lost, the probe is released to the medium, resulting in an increase of fluorescence that can be recorded as a function of peptide concentration. Thus, the half depolarization action (ED50) was evaluated, defined as the peptide concentration needed to achieve a half-depolarization effect, and the total depolarization activity at final incubation time (Table 3).
(§1) Membrane depolarization was followed using the method described earlier (Torrent M. et al. 2008). Briefly, bacterial cells were grown at 37° C. to an OD600=0.2, centrifuged at 5000×g for 7 min, washed with 5 mM Hepes at pH 7.2 containing 20 mM glucose, and resuspended in 5 mM Hepes-KOH, 20 mM glucose, and 100 mM KCl at pH 7.2 to an OD600=0.05 and 200 μl were transferred to a microtiter plate for planktonic assays. For biofilm assay, 24 h formed P. aeruginosa biofilm in a 96-well microtiter plate were washed three times with sterile PBS. Afterwards P. aeruginosa biofilms were washed with 5 mM Hepes at pH 7.2 containing 20 mM glucose, and rinsed in 5 mM Hepes-KOH, 20 mM glucose, and 100 mM KCl at pH 7.2. In both cases, DiSC3(5) was added to a final concentration of 0.4 μM and changes in the fluorescence were continuously recorded after addition of peptides at 10 μM in a Victor3 plate reader. A maximum reference value for total depolarization is calculated for Triton X-100 at 10%. Alternatively, changes in the fluorescence were continuously recorded after addition of a serially diluted protein/peptides from 50 to 0.1 μM. The peptide concentration required to achieve half of total and total membrane depolarization after 40 min incubation time was estimated from nonlinear regression analysis as previously described (Torrent M. et al. 2010)

planktonic P. aeruginosa [2] = assay: SYTOX Green membrane permeabilization assay, planktonic; assay type: cell-based, Pseudomonas aeruginosa; settings: 10% Triton X-100 as maximum reference
Method: Further insight into the membrane-permeabilizing effect of the selected AMPs against P. aeruginosa was evaluated by the Sytox Green assay. Local membrane disturbances allow the cell uptake of the fluorescent Sytox Green dye that subsequently stains the cell nucleic acids; the fluorescence increase is registered to monitor the cell membrane permeabilization. Therefore, the half permeabilization action (ED50) was measured, and the total permeabilization activity expressed as a percentage (Table 5). […] On the other hand, WY-12 and CA-M required a 6- to 7-fold greater concentration than RNase 3 to produce half of their permeabilizing effect.
(§2) Membrane permeabilization was followed using the method SYTOX Green Fluorescence membrane permeabilization assay. In the planktonic assay, bacterial cells were grown at 37° C. to an OD600=0.2, centrifuged at 5000×g for 5 min, and resuspended in 1×PBS to an OD600=0.2. An aliquot of 200 μl was then transferred to a microtiter plate. For biofilm assay, 24 h formed P. aeruginosa biofilm in a 96-well microtiter plate were washed three times with sterile PBS. SYTOX Green was added to a final concentration of 1 μM and incubated 15 min in darkness. Changes in the fluorescence were continuously recorded after addition of a serially diluted protein/peptides from 50 to 0.1 μM in a Victor3 plate reader. The peptide concentration required to achieve half of total and total membrane permeabilization achieved after 40 min was estimated from nonlinear regression analysis as previously described (Pulido D. et al. Antimicrob Agents Chemother 2013). A maximum reference value was taken for Triton X-100 at 10%.

[3] = tested on: pre-established P. aeruginosa biofilm; assay: Biofilm eradication assay, crystal violet staining; assay type: cell-based, Pseudomonas aeruginosa; settings: 24 h formed biofilm; 4 h at 37° C.; 10% Triton X-100 as maximum reference
Method: Following, the biofilm eradication activity was determined (FIG. 1 and Table 6). […] Moreover, the biofilm eradication activity of all the tested reference peptides was well above the maximum concentration tested (50 μM), except for RN3(5-17P22-36) which was able to eradicate the biofilm close to 50 μM.
(§3) Biofilm formation assay was modified from the previously described protocol (Huedo P. et al. 2014). Briefly, overnight cultures of P. aeruginosa were centrifuged at 5000×g for 5 min, washed and adjusted to an OD600=0.1 in tryptic soy medium (TSB). Two hundred microliters of the bacterial suspension were dispensed in each well of a polystyrene 96-well microtiter plate (Greiner Bio-one, France). The plate was incubated at 37° C. on an orbital shaker (30 rpm). The media was exchanged with fresh pre-warmed TSB after 4 h, in order to remove the non-attached bacteria. After 24 h incubation, the formation of biofilm was then evaluated using the crystal violet staining technique (Stepanovic S. et al. 2000). Briefly, the plates were washed three times with PBS, fixed at 60° C. for 1 h, and stained for 15 min with 200 μl of 0.1% crystal violet. After the dye was discarded, plates were rinsed in PBS and allowed to dry for 30 min at 37° C. Crystal violet was dissolved in 250 μl of 95% ethanol for 15 min, and the OD570 of the extracted dye was measured using a Victor3 plate reader (Perkin-Elmer, Waltham, Mass.).
Biofilms were grown as above. Twenty-four hour formed P. aeruginosa biofilm was washed three times with sterile PBS, and rinsed with 10 mM sodium phosphate buffer pH 7.5. Each well was treated with increasing protein/peptide concentrations (from 0.01 to 50 μM) and incubated at 37° C. for 4 h. The biofilm eradication was then evaluated using the crystal violet staining technique (Stepanovic S. et al. 2000). The ability of the antimicrobial peptides to disperse and reduce the biofilm mass of preformed biofilms was calculated. The peptide concentration required to achieve total preformed biofilm eradication after 4 h incubation time was estimated. A maximum reference value was taken for Triton X-100 at 10%. The minimum biofilm eradication concentration (MBEC), defined as the protein/peptide concentration where the 99.9% of the biofilm mass is eradicated was estimated.

[4] = Biofilm cell mortality, BacTiter-Glo luminescent assay; assay type: cell-based, Pseudomonas aeruginosa; settings: 24 h formed biofilm; 4 h at 37° C.; 10% Triton X-100 as maximum reference; N.D. = not detected at 50 μM; read-out: Biofilm cell mortality (%max)
Method: (§4) Bacterial viability was assayed using the BacTiter-Glo™ microbial cell viability kit. Briefly, protein/peptides were dissolved in 10 mM sodium phosphate, 0.1M buffer, pH 7.5, serially diluted from 50 to 0.1 μM and tested in a 96-well microtiter plate containing P. aeruginosa planktonic (OD600˜0.2) or 24 h formed biofilm for 4 h at 37° C. Fifty microliters of BacTiter-Glo™ reagent was added to each well according to the manufacturer's instructions and incubated at room temperature for 15 min. Luminescence was read on a Victor3 plate reader with a 3-s integration time. Fifty percent (ED50) and total inhibitory concentrations were calculated by fitting the data to a dose-response curve.
(§5) As a first approach, the biofilm cell viability was monitored using the BacTiter-Glo™ luminescent assay. Therefore, the antimicrobial action of the studied AMPs was determined on already established P. aeruginosa biolfilms (FIG. 1 and Table 6). […] However, for all the active peptides, the concentrations needed to produce an equivalent effect in biofilms were between 2 to 10 times higher than in planktonic cultures. […] At the same time, we applied the crystal violet technique to assess the peptide ability to disperse pre-established P. aeruginosa biofilms.
as §3

[5] = tested on: established P. aeruginosa biofilms; assay: DiSC3(5) membrane depolarization assay on biofilm; assay type: cell-based, Pseudomonas aeruginosa; settings: maximum percentage at final incubation time, 10% Triton X-100 reference
Method: as §1
(§6) Thereupon, the antimicrobial mechanism of action of the RNase 3 derived peptide on P. aeruginosa biofilms was further characterized with the depolarization and permeabilization assays. As applied for the P. aeruginosa planktonic culture, the fluorescent DisC3(5) assay was also used here in order to monitor the depolarization activity of the studied protein and peptides against established biofilms. Therefore, we have measured the half depolarization action (ED50), and the total depolarization activity expressed as a percentage (Table 7). […] Similar results were obtained for the Sytox Green permeabilization assay, where the total permeabilization effect was hindered for all the AMPs tested, and between two to ten times higher concentrations were required to achieve half of the biofilm cell permeabilizing effect in comparison to the planktonic cells.

[6] = tested on: established P. aeruginosa biofilms; assay: SYTOX Green membrane permeabilization assay on biofilm; assay type: cell-based, Pseudomonas aeruginosa; settings: maximum percentage at final incubation time, 10% Triton X-100 reference
Method: as §2, §6

planktonic P. aeruginosa [7] = assay type: cell-based, Pseudomonas aeruginosa; settings: planktonic P. aeruginosa; 4 h at 37° C.; mean ± SEM; N.D. = not detected at 50 μM; read-out: IC50 (50% bacterial viability)
Method: The microbial cell viability was then assayed using the BacTiter-Glo™ luminescent kit. […] No cell reduction was detected for the peptide GL-13 even for the maximum concentration assayed (50 μM).
as §4

[8] = tested on: LPS (lipopolysaccharides) from P. aeruginosa; assay: LPS binding assay, BODIPY TR cadaverine (BC) displacement; set-up: species or system Pseudomonas aeruginosa; settings: 100% = total displacement of the dye; mean ± SEM
Method: Following, LPS binding affinity was monitored by a fluorometric assay which measures the competitive displacement of a cadaverine fluorescent probe (BC) by the protein and peptides. The half LPS binding affinity (ED50), defined as the AMP concentration needed to achieve half of BC displacement, and the total LPS binding affinity, expressed as a percentage, were determined (Table 4). Interaction with negatively charged surfaces of bacteria is the first step for cationic peptides to reach the bacterial membranes and exert their antimicrobial action.
LPS binding was assessed using the fluorescent probe BODIPY TR cadaverine (BC) as previously described (Pulido D. et al. Febs J 2013). BC binds strongly to native LPS, specifically recognizing the lipid A portion. When a protein that interacts with LPS is added, BC is displaced from the complex and its fluorescence is increased, decreasing its occupancy factor. LPS-binding assays were carried out in a 10 mM Hepes buffer at pH 7.5. The displacement assay was performed using a 96 well microtiter plate containing stirred mixture of either LPS (10 μg/mL) and BC (10 μM). Protein/peptides were serially diluted from 10 to 0.1 μM. Fluorescence measurements were performed on a Victor3 plate reader (Perkin Elmer, Waltham, Mass.). The protein/peptide concentration required to achieve half of total and total BC displacement was estimated from nonlinear regression analysis as previously described (Wood S. J. et al. 2004)

[9] = tested on: pre-established P. aeruginosa biofilm; assay: Biofilm cell mortality, BacTiter-Glo luminescent assay; assay type: cell-based, Pseudomonas aeruginosa; settings: 24 h formed biofilm; 4 h at 37° C.; 10% Triton X-100 as maximum reference; N.D. = not detected at 50 μM
Method: as §4, §5, §3

Row | Molecule | Depolarization %max (planktonic P. aeruginosa [1]) | Permeabilization %max (planktonic P. aeruginosa [2]) | Biofilm eradication (%max) [3] | mortality [4] | Depolarization Mean % ± SEM [5] | Permeabilization Mean % ± SEM [6] | IC50 (planktonic P. aeruginosa [7]) | LPS binding %max (percentage of maximum displacement) [8] | Biofilm cell mortality (%max) [9]
1 | CC[C@H](C)[C@H](NC(=O)[C@H](Cc1ccccc1)NC(=O)[C@@H](NC(=O)[C@H](Cc1ccccc1)NC(=O)[C@H](CCCNC(=N)N)NC(=O)[C@H](CCCCN)NC(=O)[C@H](CCCNC(=N)N)NC(=O)[C@H](CCCCN)NC(=O)[C@H](Cc1c[nH]c2ccccc12)NC(=O)[C@H](CC(C)C)NC(=O)[C@@H](NC(=O)[C@@H](N)Cc1ccc(O)cc1)C(C)C)[C@@H](C)CC)C(N)=O [WY-12, YVLWKRKRFIFI-NH2] (H-YVLWKRKRFIFI-NH2; N-terminus assumed) | 44.02 ± 4.01% | 39.43 ± 1.19% | 38.36 ± 2.36% | 39.7 ± 8.93% | 32.58 ± 1.87% | 18.91 ± 2.23% | – | – | –
2 | RNase 3: Recombinant human RNase 3, also known as eosinophil cationic protein (ECP), parental protein of the peptide (protein, UniProt P12724 28-160, looked up) Eosinophil cationic protein: RPPQFTRAQWFAIQHISLNPPRCTIAMRAINNYRWRCKNQNTFLRTTFANVVNVCGNQSIRCPHNRTLNNCHRSRFRVPLLHCDLINPGAQNISNCTYADRPGRRFYVVACDNRDPRDSPRYPVVPVHLDTTI | – | 45.67 ± 2.29% | – | – | 46.11 ± 3.21% | 39.4 ± 2.88% | 840 ± 30 nM | 99.85 ± 9.51% | ~50% and 67.31 ± 0.79%
